The values that follow come from US20230220047A1, “PEPTIDES FOR TREATMENT OF SEPSIS AND CANCER” (NORWEGIAN UNIVERSITY OF SCIENCE AND TECHNOLOGY (NTNU), priority 2020, published 2023).

One experiment addresses T1, SLAMF1-TRAM interaction (Homo sapiens, UniProt Q86XR7).
T1 construct: expressed in transfected cells; host or cells: HEK-293T
In words: Co-precipitation of SLAMF1 and TRAM^Flag in the presence of ECFP-tagged peptides. The experiment is classed as binding. As to conditions: N-terminal ECFP-tagged peptides, HEK-293T lysates, anti-Flag IP. An excerpt: (A) Western blot analysis of SLAMF1 and TRAM^Flag co-precipitated in the presence of CFP-tagged peptides. TRAM^Flag was precipitated from cell lysates on agarose beads and distributed across 15 tubes. […] Unbound proteins/peptides were removed by a washing step, and pecipitates analysed by WB (anti-Flag IPs). Reduced SLAMF1 binding to TRAM indicates inhibition of the TRAM/SLAMF1 interaction by the peptide. (B) Sequences of the peptides that were expressed as ECFP-tagged proteins (N-terminal ECFP). Peptides 4 and 5 are not shown and were not pursued.
HEK293T cells expressing Flag-tagged proteins were lysed using 1×lysis buffer (150 mM NaCl, 50 mM TrisHCl (pH 8.0), 1 mM EDTA, 1% NP40), supplemented with EDTA-free Complete Mini protease Inhibitor Cocktail Tablets and PhosSTOP phosphatase inhibitor cocktail from Roche, 50 mM NaF and 2 mM […] (Sigma). IPs were carried out by rotation of cell lysates at 4° C. for 2 h with anti-flag (M2) agarose (Sigma). Beads were washed 5 times with lysis buffer and heated for 5 min with 1×NuPAGE® LDS Sample Buffer (Thermo Fisher Scientific) before analysis of precipitates by Western blotting. […]
Inhibition of the TRAM-SLAMF1 interaction using SLAMF1-derived peptides was tested. For the first line of experiments, SLAMF1-derived peptides were co-expressed as N-terminal ECFP-tagged proteins together with SLAMF1 and TRAM^FLAG constructs in HEK-293T cells.

The test system of experiment [1] is TLR4. Nature of the experiment: Primary human macrophages stimulated with LPS: cytokine mRNA and p38 MAPK phosphorylation. The experiment is classed as cell-based. Particulars: LPS-treated primary human macrophages. The procedure:
(§1) Primary human macrophages (PBMC derived, differentiated in media with 10% human serum and M-CSF 20 ng/ml, 7 days) were stimulated with K12 LPS (100 ng/ml), FSL-1 (100 ng/ml) or CL075 (3 μg/ml). […] (B) qPCR for mRNA expression of IFNβ, IL-6, TNF and IL-1β, average for three biological replicates, error bars ±SD.
(§2) The effect of P7-Pen on TLR2-mediated pro-inflammatory cytokine expression was investigated.

A further experiment deals with TLR2. Nature of the experiment: Primary human macrophages stimulated with FSL-1: cytokine mRNA, Western blot, IRAK precipitations. Type of experiment: cell-based. The protocol: as §1
(§3) Primary human macrophages (7 days) were pre-treated with Pen or P7-Pen (15 μM) for 30 min before addition of LPS (100 ng/ml), FSL-1 (100 ng/ml) or CL075 (3 μg/ml). A: Protein expression in lysates for input control. B,C: Precipitations were performed using sheep anti-IRAK4 (B) or anti-IRAK1 (C) polyclonal antibodies covalently bound to magnetic beads.
as §2
(In general: A western blot detects proteins with antibodies after separation by electrophoresis.)

Another experiment deals with TLR8. Nature of the experiment: Primary human macrophages stimulated with CL075: cytokine mRNA, Western blot, IRAK precipitations. The experiment is classed as cell-based. Particulars: CL075-treated primary human macrophages. The protocol: as §1, §3
The test system of experiment [2] is TLR4. Nature of the experiment: Western blot of LPS signalling in murine immortalized BMDMs. Particulars: murine macrophages, 10 μM, LPS. Type of experiment: cell-based, mouse. The protocol:
Western blot analysis of lysates from cells pretreated with media containing controls (water, DMSO or 10 μM control peptide C3-Pen) or P7-Pen peptide for 30 min before stimulation with LPS (K12 LPS, 100 ng/ml) for designated time periods.
Protein pellets were dissolved by heating protein pellets for 10 min at 95° C. in buffer containing 4 M urea, 1 SDS (Sigma) and NuPAGE® LDS Sample Buffer (4×) (Thermo Fisher Scientific). Otherwise, lysates were made using 1× RIPA lysis buffer (150 mM NaCl, 50 mM TrisHCl (pH 7.5), 1% Triton X100, 5 mM EDTA, protease inhibitors, phosphatase inhibitors). For Western blot analysis we used pre-cast protein gels NuPAGE™ Novex™ and iBlot Transfer Stacks iBlot Gel Transfer Device (Thermo Fisher Scientific). Proteins were transferred to the membrane by dry-blotting using iBlot® 2 NC Regular/Mini Stacks (Life Technologies) in the iBlot 2 Dry Blotting System (Life Technologies). After secondary antibody incubation, membranes were washed and incubated with HRP substrate solution (SuperSignal™ West Femto Maximum Sensitivity Substrate (Thermo Fisher Scientific)). Images were taken using Odyssey® Fc (LI-CORE). Quantification graphs were generated by the analysis of signal intensities for protein bands (protein of interest and endogenous loading control—β-tubulin from the same membrane) using Odyssey software (LI-CORE). Data were normalised to the expression levels of β-tubulin and presented as a relative fold change to the control sample.
In addition, pre-treatment of murine macrophages with P7-Pen inhibited LPS-mediated phosphorylation of TBK1 and IκBα, and decreased phosphorylation of p38 MAPK (FIG. 23).

The target of another experiment is T2, SLAMF1 (Homo sapiens, UniProt Q13291).
T2 sequence (Q13291 21-335): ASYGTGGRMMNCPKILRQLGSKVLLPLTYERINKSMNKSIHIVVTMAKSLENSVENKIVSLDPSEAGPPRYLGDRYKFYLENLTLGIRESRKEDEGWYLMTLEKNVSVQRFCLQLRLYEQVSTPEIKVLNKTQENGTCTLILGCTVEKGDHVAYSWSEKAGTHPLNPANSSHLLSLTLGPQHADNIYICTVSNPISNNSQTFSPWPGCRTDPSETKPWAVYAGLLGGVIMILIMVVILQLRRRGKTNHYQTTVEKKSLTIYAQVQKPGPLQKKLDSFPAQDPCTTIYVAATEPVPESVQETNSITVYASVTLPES
In words: Co-precipitation of SLAMF1 with peptide. As to conditions: data not shown. Type of experiment: binding. An excerpt: The striking effect of the P7 peptide on bacterial uptake could explain the blockade of TLR4-mediated IFNβ secretion by this peptide, because activation of IFNβ expression can only be initiated from the endosomal compartment. This effect could also be mediated by peptide interaction with Rab11 FIP2 (data not shown), which is a crucial regulator of TRAM trafficking and the uptake of both Gram-negative and Gram-positive bacteria by macrophages (Skjesol, supra). […] P7 is derived from a C-terminal β-sheet, and so could complex with the SLAMF1 N-terminal beta sheet. Given the effect of P7-Pen on bacterial uptake, it could be used to block bacterial uptake by monocytes, thus making bacteria more exposed to antibiotic treatment.

T1 sequence (Q86XR7 whole entry): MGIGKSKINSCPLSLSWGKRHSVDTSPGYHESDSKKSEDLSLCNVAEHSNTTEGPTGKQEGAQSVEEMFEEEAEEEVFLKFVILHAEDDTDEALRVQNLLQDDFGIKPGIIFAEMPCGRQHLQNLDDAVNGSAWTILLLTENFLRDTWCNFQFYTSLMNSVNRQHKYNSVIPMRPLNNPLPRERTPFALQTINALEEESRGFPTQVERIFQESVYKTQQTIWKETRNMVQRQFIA

Regarding “P7: SEQ ID NO: 1; amino acids 324-333 of SLAMF1 with a proline to threonine substitution at position 10 (ITVYASVTLT; P7) [Peptide P7]”, the “inhibitory effect on SLAMF1-TRAM co-precipitation” value with SLAMF1-TRAM interaction is recorded as “highest efficacy”. Further, the “phosphorylation of p38 MAPK and IL-6, TNF and IL-1β expression” value is “fully inhibited” in the experiment with TLR4 [1], “not” in the experiment with TLR2 (FSL-1-treated primary human macrophages) and “not” in the experiment on TLR8. The “phosphorylation of p38 MAPK, posttranslational modifications of IRAK1, recruitment of IRAK1 and 4 to MyD88” value with TLR2 (TLR2-stimulated cells, 15 μM, FSL-1 100 ng/ml) was “does not inhibit”. In the experiment on TLR4 [2], the “phosphorylation of TAK1 kinase and IRAK1 ubiquitination/phosphorylation” value is on record as “interfered”. Further, in the experiment with SLAMF1, the “co-precipitation of SLAMF1” value is reported as “could also co-precipitate”.
